Results taken from patent US10981873B2 (priority 2016, dated 2021).

What was measured:
[1] = tested on: Botulinum toxin type B (BoNT/B); parameters: species or system Balb/c mice; settings: mouse, in vivo
[2] = tested on: Botulinum toxin type A (BoNT/A); parameters: species or system Balb/c mice; settings: mouse, in vivo
[3] = target: Botulinum toxin type B endopeptidase (BoNT/B-LC) (Clostridium botulinum, UniProt P10844); type: biochemical
[4] = target: Botulinum toxin type A endopeptidase (BoNT/A-LC) (Clostridium botulinum, UniProt P0DPI0); type: biochemical
Botulinum toxin type A endopeptidase (BoNT/A-LC), sequence (P0DPI0 2-448 limits assumed): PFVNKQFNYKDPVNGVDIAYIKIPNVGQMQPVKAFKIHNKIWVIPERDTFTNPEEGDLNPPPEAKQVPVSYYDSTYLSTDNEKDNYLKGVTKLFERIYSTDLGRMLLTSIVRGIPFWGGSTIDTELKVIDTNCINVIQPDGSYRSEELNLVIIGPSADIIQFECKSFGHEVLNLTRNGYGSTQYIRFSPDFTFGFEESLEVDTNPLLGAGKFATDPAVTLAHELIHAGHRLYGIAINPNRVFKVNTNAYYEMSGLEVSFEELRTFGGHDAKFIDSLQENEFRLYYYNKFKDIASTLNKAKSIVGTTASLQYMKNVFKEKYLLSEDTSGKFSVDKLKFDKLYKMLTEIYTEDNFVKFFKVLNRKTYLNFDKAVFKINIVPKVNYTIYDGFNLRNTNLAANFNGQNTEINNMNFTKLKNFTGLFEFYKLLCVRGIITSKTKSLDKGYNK

N2a cells = settings: cited from earlier work

Botulinum toxin type B endopeptidase (BoNT/B-LC), sequence (P10844 2-441 limits assumed): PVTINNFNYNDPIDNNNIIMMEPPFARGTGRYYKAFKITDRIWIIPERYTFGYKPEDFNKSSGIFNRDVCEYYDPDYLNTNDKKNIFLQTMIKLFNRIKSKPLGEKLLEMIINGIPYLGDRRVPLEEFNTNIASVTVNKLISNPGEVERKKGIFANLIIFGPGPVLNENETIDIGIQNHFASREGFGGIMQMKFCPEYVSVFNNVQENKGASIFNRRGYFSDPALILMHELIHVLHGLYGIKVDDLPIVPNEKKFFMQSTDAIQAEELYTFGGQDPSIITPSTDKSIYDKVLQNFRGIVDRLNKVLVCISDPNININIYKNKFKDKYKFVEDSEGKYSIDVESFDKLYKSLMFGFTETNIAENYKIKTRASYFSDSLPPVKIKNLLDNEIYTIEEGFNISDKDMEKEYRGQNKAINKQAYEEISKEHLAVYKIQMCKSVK

| Structure (SMILES) | Survival rate % [1] | Survival rate % [2] | Inhibition rate % [3] | Inhibition rate % [4] | neutralization of toxicity of botulinum toxin type A to N2a cells (N2a cells) |
| --- | --- | --- | --- | --- | --- |
| COc1ccc(Cl)cc1NC(=O)C[S+]([O-])c1ncccc1C(=O)O (centres unmarked) [Compound 2c, 2-((2-((5-chloro-2-methoxyphenyl)amino)-2-oxoethyl)sulfinyl)nicotinic acid] | 20% | 100% | 35% | 60.0% |  |
| COc1ccc(Cl)cc1NC(=O)COc1ncccc1C(=O)O [Compound 6a, 2-(2-((5-chloro-2-methoxyphenyl)amino)-2-oxoethoxy)nicotinic acid] | 20% | 60% | 80% | 0% |  |
| COc1ccc(Cl)cc1NC(=O)CS(=O)(=O)c1cc(C(=O)O)ccn1 [Compound 2a, 2-((2-((5-chloro-2-methoxyphenyl)amino)-2-oxoethyl)sulfonyl)isonicotinic acid] | 0% | 0% | 0% | 10% |  |
| O=C(CS(=O)(=O)c1ncccc1C(=O)O)Nc1cc(Cl)ccc1Oc1ccccc1 [Compound 2b, 2-((2-((5-chloro-2-phenoxyphenyl)amino)-2-oxoethyl)sulfonyl)nicotinic acid] | 0% | 0% | 0% | 5% |  |
| CCOc1ccc(C(Nc2cccnc2)c2cc(Cl)c3cccnc3c2O)cc1 (centres unmarked) [CB7969312] |  |  |  |  | effectively neutralizes the toxicity |
